Laboratory results from patent US12227509B2, “Dihydropyrazolopyrazinone derivative having MGAT2 inhibitory activity” (Shionogi & Co., Ltd., priority 2019, dated 2025).

Columns and labels:
recombinant human MGAT2 = recombinant human MGAT2 (Homo sapiens (Human), UniProt Q3SYC2); experiment: Measurement of human MGAT2 inhibitory activity; type: biochemical; details: concentration exhibiting 50% enzyme inhibition; recombinant human MGAT2, 2-Oleoylglycerol/Oleoyl-CoA
Procedure, shortened: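 Membrane fraction of baculovirus-infected Sf-9 cells expressing N-terminally Flag-tagged full-length human MGAT2, in 100 mmol/L phosphate pH 7.4 with 2 mmol/L DTT. The substrate solution held 30 μmol/L 2-oleoylglycerol and 10 μmol/L oleoyl-CoA. After 1 h at room temperature, diolein/diolein-d5 ratio was read by ESI Q-TOF MS and % inhibition derived against enzyme and no-enzyme controls.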

Solution stability test = type: physicochemical; details: 18 hr
Description: The compound of the present invention (0.4 mg) was weighed into a 4 mL screw vial, and 2 mL of various media pH=1 (0.1 N HClaq.+30% MeCN), pH=7 (pH 7 phosphate Buffer (100 mM+30% MeCN) or pH=9 (pH 9 carbonate Buffer (100 mM+30% MeCN) was added, respectively. Complete dissolution was confirmed. If not dissolved, filtration was performed with a 0.45 μm filter. The solution or filtrate was placed in an HPLC vial. HPLC sample cooler was set at 40° C., and sequence was set so that sampling was performed by HPLC at 0, 3, 6, 9, 12, 15, and 18 hours. Stability over time was evaluated by setting the area value of 0 hr product to 100%.

[1] = Metabolism stability test (human liver microsomes); type: in vitro ADME; details: compound concentration 0.5 μmol/L, 37° C., 30 minutes, NADPH
Description: Using commercially available pooled human hepatic microsomes, the compound of the present invention was reacted for a constant time, a remaining rate was calculated by comparing a reacted sample and an unreacted sample, thereby, a degree of metabolism of the compound of the present invention in liver was assessed.
A reaction was performed (oxidative reaction) at 37° C. for 0 minute or 30 minutes in the presence of 1 mmol/L NADPH in 0.2 mL of a buffer (50 mmol/L Tris-HCl pH 7.4, 150 mmol/L potassium chloride, 10 mmol/L magnesium chloride) containing 0.5 mg protein/mL of human liver microsomes. After the reaction, 50 μL of the reaction solution was added to 100 μL of a methanol/acetonitrile=1/1 (v/v) solution, mixed and centrifuged at 3000 rpm for 15 minutes. The compound of the present invention in the supernatant was quantified by LC/MS/MS, and a remaining amount of the compound of the present invention after the reaction was calculated, letting a compound amount at 0 minute reaction time to be 100%.

[2] = Solubility test (1% DMSO addition, pH 6.8 artificial intestinal juice); type: physicochemical; details: kinetic from dmso stock, 16 hours at 25° C.
Description: The solubility of the compound of the present invention was determined under 1% DMSO addition conditions. 10 mmol/L solution of the compound was prepared with DMSO, and 6 μL of the solution of the compound of the present invention was added to 594 μL of pH 6.8 artificial intestinal juice (118 mL of 0.2 mol/L NaOH test solution and water were added to 250 mL of 0.2 mol/L potassium dihydrogen phosphate test solution to reach 1000 mL). The mixture was left standing for 16 hours at 25° C., and the mixture was vacuum-filtered. The filtrate was two-fold diluted with methanol/water=1/1 (V/V), and the compound concentration in the filtrate was measured with HPLC or LC/MS/MS by the absolute calibration method. The dilution concentration and the dilution solvent were changed as necessary.

CYP1A2 = CYP1A2 (Homo sapiens (Human), UniProt P05177); experiment: CYP inhibition test, CYP1A2; type: in vitro ADME; details: pooled human liver microsomes; 7-ethoxyresorufin O-deethylation; given as 'five kinds'
Sequence of CYP1A2 (P05177 whole entry): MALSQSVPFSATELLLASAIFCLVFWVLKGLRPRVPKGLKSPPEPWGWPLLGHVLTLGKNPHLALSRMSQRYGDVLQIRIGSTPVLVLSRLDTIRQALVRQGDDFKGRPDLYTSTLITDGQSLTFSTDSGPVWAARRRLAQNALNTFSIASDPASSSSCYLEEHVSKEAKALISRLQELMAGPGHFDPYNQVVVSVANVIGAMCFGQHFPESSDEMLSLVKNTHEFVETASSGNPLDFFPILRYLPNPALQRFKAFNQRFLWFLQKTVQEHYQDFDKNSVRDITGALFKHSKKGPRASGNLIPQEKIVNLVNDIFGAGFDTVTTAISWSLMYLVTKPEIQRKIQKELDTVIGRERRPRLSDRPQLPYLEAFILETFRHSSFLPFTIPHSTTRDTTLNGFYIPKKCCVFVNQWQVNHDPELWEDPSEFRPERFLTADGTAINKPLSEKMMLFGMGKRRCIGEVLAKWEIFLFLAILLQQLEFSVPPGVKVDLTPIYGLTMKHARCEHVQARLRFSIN
Source text: (§1) Using commercially available pooled human hepatic microsome, and employing, as markers, 7-ethoxyresorufin O-deethylation (CYP1A2), tolbutamide methyl-hydroxylation (CYP2C9), mephenytoin 4'-hydroxylation (CYP2C19), dextromethorphan 0-demethylation (CYP2D6), and terfenadine hydroxylation (CYP3A4) as typical substrate metabolism reactions of human main five CYP enzyme forms (CYP1A2, 2C9, 2C19, 2D6, 3A4), an inhibitory degree of each metabolite production amount by the compound of the present invention was assessed. The reaction conditions are as follows: substrate, 0.5 μmol/L ethoxyresorufin (CYP1A2), 100 μmol/L tolbutamide (CYP2C9), 50 μmol/L S-mephenitoin (CYP2C19), 5 μmol/L dextromethorphan (CYP2D6), 1 μmol/L terfenedine (CYP3A4); reaction time, 15 minutes; reaction temperature, 37° C.; enzyme, pooled human liver microsomes 0.2 mg protein/mL; concentrations of the compound of the present invention, 1, 5, 10, 20 μmol/L (four points). As a reaction solution, each five kinds of substrates, human liver microsomes, or compound of the present invention in 50 mmol/L Hepes buffer were added to a 96-well plate at the composition as described above, and NADPH, as a cofactor was added to initiate metabolism reactions. After the incubation at 37° C. for 15 minutes, a methanol/acetonitrile=1/[…]) solution was added to stop the reaction. After the centrifugation at 3000 rpm for 15 minutes, resorufin (CYP1A2 metabolite) in the supernatant was quantified by a fluorescent multilabel counter or LC/MS/MS, and tolbutamide hydroxide (CYP2C9 metabolite), mephenytoin 4' hydroxide (CYP2C19 metabolite), dextrorphan (CYP2D6 metabolite), and terfenadine alcohol (CYP3A4 metabolite) were quantified by LC/MS/MS. Addition of only DMSO being a solvent dissolving a drug to a reaction system was adopted as a control (100%). Remaining activity (%) was calculated. IC50 was calculated by reverse presumption by a logistic model using the concentration and an inhibition rate.

CYP2C9 = CYP2C9 (Homo sapiens (Human), UniProt P11712); experiment: CYP inhibition test, CYP2C9; type: in vitro ADME; details: pooled human liver microsomes; tolbutamide methyl-hydroxylation; given as 'five kinds'
Sequence of CYP2C9 (P11712 whole entry): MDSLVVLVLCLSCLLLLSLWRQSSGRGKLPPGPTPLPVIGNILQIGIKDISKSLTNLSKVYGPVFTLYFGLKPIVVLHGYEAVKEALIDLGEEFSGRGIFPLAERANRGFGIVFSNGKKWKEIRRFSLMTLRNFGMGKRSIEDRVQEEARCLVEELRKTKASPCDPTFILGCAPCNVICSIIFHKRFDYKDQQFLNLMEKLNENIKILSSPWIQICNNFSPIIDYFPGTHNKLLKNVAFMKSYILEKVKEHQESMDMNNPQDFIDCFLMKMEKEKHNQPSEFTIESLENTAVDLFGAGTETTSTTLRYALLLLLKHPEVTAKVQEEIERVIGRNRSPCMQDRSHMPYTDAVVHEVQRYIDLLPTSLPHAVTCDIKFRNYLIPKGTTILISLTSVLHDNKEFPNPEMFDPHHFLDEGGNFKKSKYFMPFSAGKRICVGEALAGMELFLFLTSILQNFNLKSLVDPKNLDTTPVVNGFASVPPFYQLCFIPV
Source text: as §1

CYP2C19 = CYP2C19 (Homo sapiens (Human), UniProt P33261); experiment: CYP inhibition test, CYP2C19; type: in vitro ADME; details: pooled human liver microsomes; mephenytoin 4′-hydroxylation; given as 'five kinds'
Sequence of CYP2C19 (P33261 whole entry): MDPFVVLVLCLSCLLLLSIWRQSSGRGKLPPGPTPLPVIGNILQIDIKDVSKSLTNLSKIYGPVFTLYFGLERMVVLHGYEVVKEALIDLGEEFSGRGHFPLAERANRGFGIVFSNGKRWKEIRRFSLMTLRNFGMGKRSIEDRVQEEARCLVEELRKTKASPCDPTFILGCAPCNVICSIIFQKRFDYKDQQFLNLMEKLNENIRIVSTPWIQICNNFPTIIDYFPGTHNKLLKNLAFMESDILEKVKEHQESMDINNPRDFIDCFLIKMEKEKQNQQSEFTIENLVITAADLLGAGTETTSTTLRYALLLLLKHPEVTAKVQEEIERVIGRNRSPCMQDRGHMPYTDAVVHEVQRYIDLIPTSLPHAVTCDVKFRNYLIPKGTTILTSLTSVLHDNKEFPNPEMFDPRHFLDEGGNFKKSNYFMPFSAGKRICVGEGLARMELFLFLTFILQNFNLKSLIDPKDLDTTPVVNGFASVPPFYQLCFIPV
Source text: as §1

CYP2D6 = CYP2D6 (Homo sapiens (Human), UniProt P10635); experiment: CYP inhibition test, CYP2D6; type: in vitro ADME; details: pooled human liver microsomes; dextromethorphan O-demethylation; given as 'five kinds'
Sequence of CYP2D6 (P10635 whole entry): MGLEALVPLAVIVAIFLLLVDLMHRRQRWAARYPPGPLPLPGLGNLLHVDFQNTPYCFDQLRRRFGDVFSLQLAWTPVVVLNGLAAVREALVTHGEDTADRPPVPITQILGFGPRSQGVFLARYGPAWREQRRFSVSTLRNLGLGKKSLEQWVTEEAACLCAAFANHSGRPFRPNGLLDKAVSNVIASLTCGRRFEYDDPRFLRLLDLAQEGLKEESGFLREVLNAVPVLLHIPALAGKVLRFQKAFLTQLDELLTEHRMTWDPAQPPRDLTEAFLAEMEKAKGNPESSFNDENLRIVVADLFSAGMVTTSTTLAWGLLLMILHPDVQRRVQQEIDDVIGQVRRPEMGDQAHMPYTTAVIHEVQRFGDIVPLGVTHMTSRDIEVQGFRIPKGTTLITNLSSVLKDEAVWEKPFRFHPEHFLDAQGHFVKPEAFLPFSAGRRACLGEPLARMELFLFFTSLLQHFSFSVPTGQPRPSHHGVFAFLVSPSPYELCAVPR
Source text: as §1

CYP3A4 = CYP3A4 (Homo sapiens (Human), UniProt P08684); experiment: CYP inhibition test, CYP3A4; type: in vitro ADME; details: pooled human liver microsomes; terfenadine hydroxylation; given as 'five kinds'
Sequence of CYP3A4 (P08684 whole entry): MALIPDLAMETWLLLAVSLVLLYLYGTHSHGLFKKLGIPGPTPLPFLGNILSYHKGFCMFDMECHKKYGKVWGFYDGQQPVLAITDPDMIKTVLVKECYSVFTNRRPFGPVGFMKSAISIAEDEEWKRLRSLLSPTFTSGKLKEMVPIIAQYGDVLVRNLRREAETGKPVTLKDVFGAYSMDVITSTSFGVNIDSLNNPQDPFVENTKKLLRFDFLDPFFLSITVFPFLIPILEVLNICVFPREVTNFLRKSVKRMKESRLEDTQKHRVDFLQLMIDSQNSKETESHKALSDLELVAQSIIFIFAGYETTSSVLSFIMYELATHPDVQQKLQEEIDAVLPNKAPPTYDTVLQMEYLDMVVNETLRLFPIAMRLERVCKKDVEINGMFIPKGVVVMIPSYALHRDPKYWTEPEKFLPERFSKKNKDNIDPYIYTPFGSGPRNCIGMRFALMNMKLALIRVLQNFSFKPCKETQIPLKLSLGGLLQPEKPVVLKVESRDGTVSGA
Source text: as §1

[3] = BA test (oral absorption); type: in vivo; details: plasma; mice or SD rats; from AUCs of oral and intravenous administration
Description: Materials and methods for experiments to evaluate oral absorption
(1) Animals: the mice or SD rats were used.
(2) Breeding conditions: the mice or SD rats were allowed to freely take solid food and sterilized tap water.
(3) Setting of dosage and grouping: Oral administration and intravenous administration were performed with a predetermined dosage. Grouping was set as below. (dosage changed per compound)
Oral administration: 1 to 30 mg/kg (n=2 to 3)
Intravenous administration: 0.5 to 10 mg/kg (n=2 to 3)
(4) Preparation of administration solution: Oral administration was performed in the form of a suspension or a solution. Intravenous administration was performed after solubilization.
(5) Routes of administration: Oral administration was performed mandatory into the stomach by oral sonde. Intravenous administration was performed from caudal vein or femoral vein by syringes with needle.
(6) Evaluation items: blood was collected over time, and the plasma concentration of the compound of the present invention was measured by LC/MS/MS.
(7) Statistical analysis: regarding the transition of the plasma concentration of the compound of the present invention, the area under the plasma concentration-time curve (AUC) was calculated by non-linear least squares program WinNonlin (registered trademark), and the bioavailability (BA) of the compound of the present invention was calculated from the AUCs of the oral administration group and intravenous administration group.

hERG (IKr) = hERG (IKr) (Homo sapiens (Human), UniProt Q12809); experiment: hERG test; type: cell-based; details: CHO cells expressing hERG channel, pH 7.4, 10 μmol/L of test compound, read-out: % inhibition of hERG tail peak current (IKr)
Sequence of hERG (IKr) (Q12809 whole entry): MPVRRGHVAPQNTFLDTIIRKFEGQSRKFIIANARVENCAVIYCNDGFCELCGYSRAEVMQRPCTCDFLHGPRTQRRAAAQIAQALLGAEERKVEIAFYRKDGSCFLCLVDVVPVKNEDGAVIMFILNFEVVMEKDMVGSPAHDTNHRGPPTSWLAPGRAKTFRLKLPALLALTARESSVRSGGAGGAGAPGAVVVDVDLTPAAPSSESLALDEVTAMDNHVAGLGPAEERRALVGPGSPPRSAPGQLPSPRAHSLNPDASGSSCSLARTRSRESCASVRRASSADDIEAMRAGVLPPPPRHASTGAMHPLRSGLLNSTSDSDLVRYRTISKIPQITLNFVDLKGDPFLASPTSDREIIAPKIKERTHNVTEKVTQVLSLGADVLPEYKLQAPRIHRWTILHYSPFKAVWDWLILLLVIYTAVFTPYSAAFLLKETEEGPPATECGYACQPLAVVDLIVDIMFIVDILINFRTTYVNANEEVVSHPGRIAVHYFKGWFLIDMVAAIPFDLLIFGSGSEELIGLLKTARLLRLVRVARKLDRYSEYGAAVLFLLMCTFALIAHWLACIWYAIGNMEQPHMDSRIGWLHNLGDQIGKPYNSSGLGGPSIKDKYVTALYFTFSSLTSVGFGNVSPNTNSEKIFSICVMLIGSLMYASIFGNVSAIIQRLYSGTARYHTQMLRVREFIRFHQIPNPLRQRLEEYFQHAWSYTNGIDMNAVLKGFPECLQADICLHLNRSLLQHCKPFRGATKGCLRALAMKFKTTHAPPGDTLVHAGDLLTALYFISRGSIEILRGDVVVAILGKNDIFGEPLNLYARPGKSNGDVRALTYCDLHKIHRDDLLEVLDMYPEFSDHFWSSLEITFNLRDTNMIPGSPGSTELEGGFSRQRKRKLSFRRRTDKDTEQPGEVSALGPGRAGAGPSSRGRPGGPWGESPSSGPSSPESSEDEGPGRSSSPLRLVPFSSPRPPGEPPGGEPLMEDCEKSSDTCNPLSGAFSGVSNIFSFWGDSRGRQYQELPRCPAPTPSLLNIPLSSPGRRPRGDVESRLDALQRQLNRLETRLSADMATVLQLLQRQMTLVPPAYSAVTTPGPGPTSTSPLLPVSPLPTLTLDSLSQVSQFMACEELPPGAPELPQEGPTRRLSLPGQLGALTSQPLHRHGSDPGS
Source text: For the purpose of assessing risk of an electrocardiogram QT interval prolongation of the compound of the present invention, effects of the compound of the present invention on delayed rectifier K^+ current (IKr), which plays an important role in the ventricular repolarization process, was studied using CHO cells expressing human ether-a-go-go related gene (hERG) channel.
After a cell was retained at a membrane potential of −80 mV by whole cell patch clamp method using an automated patch clamp system (QPatch; Sophion BIoscience A/S), IKr induced by application of a leak potential of −50 mV followed by depolarization pulse stimulation at +20 mV for 2 seconds and, further, repolarization pulse stimulation at −50 mV for 2 seconds, was recorded. […] From the recording IKr, an absolute value of the tail peak current was measured based on the current value at the resting membrane potential using analysis software (Falster Patch; Sophion Bioscience A/S). Further, the % inhibition of tail peak current for the compound of the present invention relative to the tail peak current after application of the vehicle is calculated to assess influence of the compound of the present invention on IKr.

Sequence of recombinant human MGAT2 (Q3SYC2 whole entry): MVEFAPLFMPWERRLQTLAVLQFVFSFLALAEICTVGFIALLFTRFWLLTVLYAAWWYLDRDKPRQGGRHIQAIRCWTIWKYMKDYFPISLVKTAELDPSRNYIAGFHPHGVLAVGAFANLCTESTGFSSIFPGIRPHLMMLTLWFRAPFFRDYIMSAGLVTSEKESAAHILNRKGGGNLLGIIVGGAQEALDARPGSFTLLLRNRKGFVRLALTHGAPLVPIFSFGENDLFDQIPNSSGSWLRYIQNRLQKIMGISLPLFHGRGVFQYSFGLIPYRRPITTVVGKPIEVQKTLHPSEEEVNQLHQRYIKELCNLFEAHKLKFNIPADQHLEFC

| Structure (SMILES) | IC50 (recombinant human MGAT2) | Residual rate (Solution stability test; pH=1, 40° C.) | Residual rate (Solution stability test; pH=7, 40° C.) | Residual rate (Solution stability test; pH=9, 40° C.) | Remaining rate [1] | solubility at 16 h [2] | IC50 (CYP1A2) | IC50 (CYP2C9) | IC50 (CYP2C19) | IC50 (CYP2D6) | IC50 (CYP3A4) | bioavailability [3] | inhibition at 10 min, 10 μmol/L (hERG (IKr)) |
| --- | --- | --- | --- | --- | --- | --- | --- | --- | --- | --- | --- | --- | --- |
| CS(=O)(=O)CC(=O)Nc1c(-c2ccc(C#N)cn2)nn2c1C(=O)N[C@@]1(CCc3cc(OCC(F)(F)F)ccc31)C2 [Compound I-3] | 1.99 nM | 100.2% | 100.9% | 100.2% |  |  |  |  |  |  |  |  |  |
| CS(=O)(=O)CC(=O)Nc1c(-c2ccc(Cl)cn2)nn2c1C(=O)N[C@@]1(CCc3cc(F)cc(F)c31)C2 [Compound I-142] |  |  |  |  | 106% | > 50 µM | > 20 µM | > 20 µM | > 20 µM | > 20 µM | > 20 µM | 66.2% | 10.6% |
